Reference: patent publication US20180180626A1, “A METHOD FOR DEVELOPMENT OF RECOMBINANT PROTEINS WITH FINGERPRINT LIKE SIMILARITY TO THE REFERENCE PRODUCT” (STC Biologics, Inc., priority 2014, published 2018)

Experiments:
fucosyl transferase = assay: 2AB glycan analysis of trastuzumab biosimilar isolated from CHO cells treated with 2F-Peracetyl-Fucose (FTI); format: cell-based, Chinese Hamster
Protocol: Chromatography by HPLC or UPLC is another powerful method to analyze recombinant proteins. For example, glycan species can he quantitated using a fluorescent 2AB labeling method. In this method, glycans are first removed from the protein by digestion with N-glycanase and then a fluorescent label is added to each glycan. The glycans can then be resolved using HILIC based chromatography and quantitated by measuring relative area under the curve. For oxidation quantitation an HIC based method can be used.
To obtain a recipe for production of a biosimilar with a similar glycosylation pattern to the original Herceptin®, CHO cells engineered to express the recombinant protein with an amino acid sequence identical to trastuzumab were first grown in the growth media without any inhibitors to establish a baseline. The glycan Species were analyzed using 2AB glycan method. It was observed that Peak 2 (G0) and Peak 6 (G1), and Peak 7 (mannose-5 and G1′) modifications were lower for the biosimilar than their target profile.
G0, G1 and G1′ modifications are non-fucosylated modifications and are controlled by a host protein called fucosyl transferase and the mannose-5 modification is controlled by the host protein known as α-mannosidase 1. Fucosyl transferase can be inhibited by a variety of fucosyltransferase inhibitors shown in FIG. 2, α-mannosidase 1 can be inhibited by kifunensine.
Briefly to obtain trastuzumab with modifications in the target range, cells were placed in growth media and treated with 2F-Peracetyl-Fucose (FTI) on day 7 at different concentrations (20 μM. 10 μM, 5 μM, 1 μM, 0.1 μM) to identify optimal drug concentration. On day 12 cells were harvested and the trastuzumab biosimilar isolated. […] FTI concentrations used to reach target profile are cell specific so it is expected that different concentrations of the FTI or other modulators would be required when a starting cell line is different from the one described in this example.
Different treatment methods such as Method 2 can be used to obtain target profile. For example, FTI can be added on a daily basis starting on day 5 (Table 3, Method 2) rather than on Day 7.

α-mannosidase I = assay: 2AB glycan analysis of trastuzumab biosimilar isolated from CHO cells treated with kifunensine (KFI), with FTI; format: cell-based, Chinese Hamster; details: treated on Day 7; tested about 0.001 ng/ml-100 ng/ml
Protocol: Chromatography by HPLC or UPLC is another powerful method to analyze recombinant proteins. For example, glycan species can he quantitated using a fluorescent 2AB labeling method. In this method, glycans are first removed from the protein by digestion with N-glycanase and then a fluorescent label is added to each glycan. The glycans can then be resolved using HILIC based chromatography and quantitated by measuring relative area under the curve. For oxidation quantitation an HIC based method can be used. To obtain a recipe for production of a biosimilar with a similar glycosylation pattern to the original Herceptin®, CHO cells engineered to express the recombinant protein with an amino acid sequence identical to trastuzumab were first grown in the growth media without any inhibitors to establish a baseline. The glycan Species were analyzed using 2AB glycan method. It was observed that Peak 2 (G0) and Peak 6 (G1), and Peak 7 (mannose-5 and G1′) modifications were lower for the biosimilar than their target profile. G0, G1 and G1′ modifications are non-fucosylated modifications and are controlled by a host protein called fucosyl transferase and the mannose-5 modification is controlled by the host protein known as α-mannosidase 1. Fucosyl transferase can be inhibited by a variety of fucosyltransferase inhibitors shown in FIG. 2, α-mannosidase 1 can be inhibited by kifunensine. […]

[1] = Method 2 - […]-[…] FTI every day starting at day 5

Compound: CC(=O)OC1O[C@@H](C)[C@@H](OC(C)=O)[C@@H](OC(C)=O)[C@@H]1F (some centres unmarked) [FTI, 2F-Peracetyl-Fucose]
- G0, G1 and G1′ levels versus target PTM range (fucosyl transferase; 10 μM FTI on day 7, harvest day 12): matched the target PTM range
- G0, G1 and G1′ levels versus target PTM range (fucosyl transferase; 20 μM FTI on day 7, harvest day 12): increase of G0, G1 and G1′ PTMs above that of target PTMs
- modifications versus target range (fucosyl transferase; FTI at concentrations lower than 8 μM): outside the target range
- Glycan Species Peak 2-G0 (fucosyl transferase; Method 1 - 10 μM FTI - Day 7): 4%
- Glycan Species Peak 3 (fucosyl transferase; Method 1 - 10 μM FTI - Day 7): 1.5%
- Glycan Species Peak 4-G0F (fucosyl transferase; Method 1 - 10 μM FTI - Day 7): 44%
- Glycan Species Peak 5 (fucosyl transferase; Method 1 - 10 μM FTI - Day 7): 0.8%
- Glycan Species Peak 6-G1 (fucosyl transferase; Method 1 - 10 μM FTI - Day 7): 1.8%
- Glycan Species Peak 7- G1F/mannose 5 (fucosyl transferase; Method 1 - 10 μM FTI - Day 7): 1.2%
- Glycan Species Peak 8- (1,6)G1F (fucosyl transferase; Method 1 - 10 μM FTI - Day 7): 26%
- Glycan Species Peak 9 (1,3)G1F (fucosyl transferase; Method 1 - 10 μM FTI - Day 7): 11%
- Glycan Species Peak 10 G2F (fucosyl transferase; Method 1 - 10 μM FTI - Day 7): 6.5%
- Glycan Species Peak 11 (fucosyl transferase; Method 1 - 10 μM FTI - Day 7): 0.2%
- Glycan Species Peak 12 (fucosyl transferase; Method 1 - 10 μM FTI - Day 7): 0.25%
- Glycan Species Peak 13 (fucosyl transferase; Method 1 - 10 μM FTI - Day 7): 0.2%
- Glycan Species Peak 14 (fucosyl transferase; Method 1 - 10 μM FTI - Day 7): 0.2%
- Glycan Species Peak 15 (fucosyl transferase; Method 1 - 10 μM FTI - Day 7): 0.2%
- Glycan Species Peak 1 (fucosyl transferase; Method 1 - 10 μM FTI - Day 7, trastuzumab biosimilar, harvest day 12): 1.5%
- Glycan Species Peak 4-G0F (fucosyl transferase; [1]): 44%
- Glycan Species Peak 8- (1,6)G1F (fucosyl transferase; [1]): 26%
- Glycan Species Peak 9 (1,3)G1F (fucosyl transferase; [1]): 11%
- Glycan Species Peak 10 G2F (fucosyl transferase; [1]): 6.5%

Compound: O=C1N[C@@H]2[C@@H](O)[C@@H](O)[C@H](O)[C@@H](CO)N2C1=O [kifunensine]
- ideal concentration for optimization of the mannose species (α-mannosidase I): 1 to 10 ng/mL
